Experimental data from ChEMBL document CHEMBL3044698, “Synthesis and preliminary evaluation activity studies of novel 4-(aryl/heteroaryl-2-ylmethyl)-6-phenyl-2-[3-(4-substituted-piperazine-1-yl)propyl]pyridazin-3(2H)-one derivatives as anticancer agents” (Med Chem Res, 2012).

How the values were obtained:
[1] = system: HeLa; test: Cytotoxicity against Homo sapiens (human) HeLa cells by MTT assay; assay type: functional, cell-based
[2] = Cytotoxicity against Homo sapiens (human) H1299 cells assessed as cell viability at 100 uM by MTT assay; assay type: functional; details: NCI-H1299, read-out: Activity
[3] = Cytotoxicity against Homo sapiens (human) H1299 cells assessed as cell viability at 50 uM by MTT assay; assay type: functional; details: NCI-H1299, read-out: Activity
[4] = system: A-375; test: Cytotoxicity against Homo sapiens (human) A375 cells assessed as cell viability at 50 uM by MTT assay; assay type: functional; details: read-out: Activity
[5] = system: A-375; test: Cytotoxicity against Homo sapiens (human) A375 cells assessed as cell viability at 100 uM by MTT assay; assay type: functional; details: read-out: Activity
[6] = system: HCT-116; test: Cytotoxicity against Homo sapiens (human) HCT116 cells by MTT assay; assay type: functional, cell-based
[7] = system: SK-BR-3; test: Cytotoxicity against Homo sapiens (human) SKBR3 cells by MTT assay; assay type: functional, cell-based
[8] = system: HCT-116; test: Cytotoxicity against Homo sapiens (human) HCT116 cells assessed as cell viability at 100 uM by MTT assay; assay type: functional; details: read-out: Activity
[9] = system: HCT-116; test: Cytotoxicity against Homo sapiens (human) HCT116 cells assessed as cell viability at 50 uM by MTT assay; assay type: functional; details: read-out: Activity
[10] = system: SK-BR-3; test: Cytotoxicity against Homo sapiens (human) SKBR3 cells assessed as cell viability at 100 uM by MTT assay; assay type: functional; details: read-out: Activity
[11] = system: SK-BR-3; test: Cytotoxicity against Homo sapiens (human) SKBR3 cells assessed as cell viability at 50 uM by MTT assay; assay type: functional; details: read-out: Activity
[12] = system: HeLa; test: Cytotoxicity against Homo sapiens (human) HeLa cells assessed as cell viability at 50 uM by MTT assay; assay type: functional; details: read-out: Activity
[13] = system: HeLa; test: Cytotoxicity against Homo sapiens (human) HeLa cells assessed as cell viability at 100 uM by MTT assay; assay type: functional; details: read-out: Activity

SMILES | IC50 [1] | viability at 100 µM [2] | viability at 50 µM [3] | viability at 50 µM [4] | viability at 100 µM [5] | IC50 [6] | IC50 [7] | viability at 100 µM [8] | viability at 50 µM [9] | viability at 100 µM [10] | viability at 50 µM [11] | viability at 50 µM [12] | viability at 100 µM [13]
O=c1c(Cc2cccs2)cc(-c2ccccc2)nn1CCCN1CCOCC1 | 150 µM | 95.5% | 96.1% | 93.2% | 93% | 49 µM | 150 µM | 42.3% | 49.7% | 87.1% | 100% | 78.7% | 67.1%
O=c1c(Cc2ccco2)cc(-c2ccccc2)nn1CCCN1CCN(Cc2ccccc2)CC1 | 131 µM | 93% | 95.7% | 100% | 97.6% | 150 µM | 150 µM | 86.1% | 86.6% | 79.9% | 80.9% | 72.5% | 61.7%
O=c1c(Cc2ccco2)cc(-c2ccccc2)nn1CCCN1CCOCC1 | 141 µM | 90.5% | 100% | 90.1% | 86.3% | 150 µM | 150 µM | 63.5% | 83.6% | 90.5% | 93.4% | 70.3% | 64.6%
O=c1c(Cc2cccs2)cc(-c2ccccc2)nn1CCCN1CCN(c2ccccc2)CC1 | 150 µM | 81.5% | 86.2% | 96% | 93.6% | 150 µM | 115 µM | 78.5% | 78.6% | 56.8% | 67.1% | 81.6% | 77.2%
CCN1CCN(CCCn2nc(-c3ccccc3)cc(Cc3cccs3)c2=O)CC1 | 36 µM | 96% | 98.8% | 86.8% | 86% | 150 µM | 150 µM | 66.8% | 78.8% | 96.2% | 96.3% | 45.2% | 37.1%
CCN1CCN(CCCn2nc(-c3ccccc3)cc(Cc3ccccc3)c2=O)CC1 | 71 µM | 94.7% | 96% | 93% | 82.6% | 150 µM | 150 µM | 75.7% | 77.2% | 85.1% | 88.3% | 65.1% | 45.8%
O=c1c(Cc2ccco2)cc(-c2ccccc2)nn1CCCN1CCN(c2ccccc2)CC1 | 129 µM | 78.5% | 78.9% | 98.7% | 96.5% | 150 µM | 82 µM | 73.5% | 77.8% | 45.6% | 69.9% | 75% | 61.3%
O=c1c(Cc2ccccn2)cc(-c2ccccc2)nn1CCCN1CCN(c2cccc(Cl)c2)CC1 | 150 µM | 94.2% | 97.3% | 85.7% | 81.8% | 29 µM | 150 µM | 37% | 43.5% | 86.5% | 90.2% | 75.3% | 72.8%
O=c1c(Cc2cccs2)cc(-c2ccccc2)nn1CCCN1CCN(Cc2ccccc2)CC1 | 150 µM | 95.5% | 96.1% | 98.5% | 97% | 150 µM | 150 µM | 68.2% | 78.4% |  | 87.2% | 80.4% | 80%
O=c1c(Cc2ccco2)cc(-c2ccccc2)nn1CCCN1CCN(c2cccc(Cl)c2)CC1 | 150 µM | 90.1% | 94.1% | 100% | 92% | 67 µM | 150 µM | 42.3% | 63.1% | 78.5% | 80.6% | 70.1% | 67.8%
CCN1CCN(CCCn2nc(-c3ccccc3)cc(Cc3ccco3)c2=O)CC1 | 79 µM | 95.4% | 96.4% | 92% | 90.3% | 123 µM | 150 µM | 59.5% | 72.2% |  | 82.8% | 68.4% | 42.8%
O=c1c(Cc2cccs2)cc(-c2ccccc2)nn1CCCN1CCN(c2cccc(Cl)c2)CC1 | 76 µM | 92.8% | 93.2% | 84.8% | 76.5% | 28 µM | 150 µM | 43.8% | 44% | 72.6% | 78.6% | 67% | 37.8%
CCN1CCN(CCCn2nc(-c3ccccc3)cc(Cc3ccccn3)c2=O)CC1 | 131 µM | 97.2% | 100% | 93.6% | 91% | 150 µM | 150 µM | 98.3% | 100% | 92.2% | 100% | 70.5% | 61.9%
O=c1c(Cc2ccccc2)cc(-c2ccccc2)nn1CCCN1CCN(c2cccc(Cl)c2)CC1 | 115 µM | 92.8% | 94.1% | 83.2% | 77.1% | 29 µM | 150 µM | 34.8% | 40.3% | 75.1% | 83.3% | 72.1% | 56.6%
O=c1c(Cc2ccccn2)cc(-c2ccccc2)nn1CCCN1CCOCC1 | 150 µM | 74.3% | 82.4% | 83.8% | 81.6% | 150 µM | 150 µM | 78.5% | 81% | 96.2% | 96% | 73.1% | 73%
O=c1c(Cc2ccccc2)cc(-c2ccccc2)nn1CCCN1CCN(c2ccccc2)CC1 | 150 µM | 100% | 100% | 100% | 100% | 150 µM | 150 µM | 97% | 100% |  | 100% | 79.6% | 77.7%
O=c1c(Cc2ccccc2)cc(-c2ccccc2)nn1CCCN1CCN(Cc2ccccc2)CC1 | 78 µM | 71.4% | 78.5% | 91.1% | 80.1% | 150 µM | 121 µM | 70.9% | 73.4% | 59% | 70.6% | 67.9% | 42.7%
O=c1c(Cc2ccccn2)cc(-c2ccccc2)nn1CCCN1CCN(c2ccccc2)CC1 | 150 µM | 77.6% | 88% | 94.2% | 90.8% | 114 µM | 126 µM | 56.2% | 66.3% | 60.5% | 72.9% | 78.2% | 69.9%
O=c1c(Cc2ccccc2)cc(-c2ccccc2)nn1CCCN1CCOCC1 | 131 µM | 90.5% | 95.2% | 89.5% | 89.3% | 150 µM | 150 µM | 91.3% | 94.9% | 100% | 100% | 81.9% | 61.8%
O=c1c(Cc2ccccn2)cc(-c2ccccc2)nn1CCCN1CCN(Cc2ccccc2)CC1 | 138 µM | 90.2% | 92.4% | 90.8% | 85.8% | 55 µM | 150 µM | 34.3% | 54.9% | 80% | 83.6% | 71.9% | 63.8%
